Like-named read-outs stand apart in the source and are kept apart here.
Key:
[1] = assay type: in vivo; settings: for Abdominal tone / Body weight after 1° dose / Body weight after 4° dose / Limb tone / Vocalization: QID q6h; for Piloerection: animals of 4, after 4° dose; for Vocalization: animals of 4
Protocol: A maximum tolerable dose (MTD) assessment was conducted to evaluate the tolerability of MB076 with meropenem and cilastatin combination. Neutropenic uninfected female ICR mice were used. Meropenem combined with cilastatin was subcutaneously (SC) administered followed by intravenous (IV) administration of MB076 within 10 min. Doses were administered four times (QID) with 6 h intervals (q6h) for one day. Animals were monitored for acute symptoms after the first dose administration and cage side observations were recorded for the subsequent QID doses. Moreover, the body weight of each animal was recorded daily.

[2] = Single dose IV PK in plasma and thigh homogenate, thigh infection model; assay type: in vivo, mice; settings: for AUC(0-inf) / AUC(0-t) / C0 / clearance / half-life / Vd: female, ICR, mouse; for Vd: read-out: Vss
Protocol: A single dose PK study with MB_076 has been conducted to evaluate antibiotic exposure over time in plasma samples and thigh homogenates following a single dose IV administration in K. pneumoniae AR-BANK #0098 (KPC-2) thigh infection model with neutropenic female ICR mice. Among the PK parameters, t1/2, C0, AUClast, AUCINF, Vss and CL were evaluated (Table 7), while for PD parameters, C0/MIC, AUClast/MIC and T>MIC were calculated (Table 8). In particular, the % time over the minimum inhibitory concentration (T>MIC) was calculated for all dose groups to determine the impact of MB076 efficacy in this animal model. Plots of concentration in plasma and thigh homogenate versus time were created and the linearity of the resulting PK parameters was assessed.

[3] = test system: E. coli DH10B pBC-SK control; experiment: MIC with cefepime, agar microdilution, CLSI; assay type: cell-based; settings: compound fixed at 4 ug/ml; B-lactamases none
Protocol: (§1) Minimum inhibitory concentration (MIC) of MB076 and derivatives (PCF_038-043) in combination with cefepime.
(§2) MICs were determined by the Agar microdilution method, following CLSI guidelines. Compounds were tested at fixed concentration of 4 ug/ml in combination with cefepime.

[4] = test system: K. pneumoniae original KPC-2; experiment: MIC with cefepime, agar microdilution, CLSI; assay type: cell-based; settings: compound fixed at 4 ug/ml
Protocol: as §1, §2

[5] = test system: E. coli DH10B pBC-SK KPC-2; experiment: MIC with cefepime, agar microdilution, CLSI; assay type: cell-based; settings: compound fixed at 4 ug/ml
Protocol: as §1, §2

[6] = test system: K. pneumoniae 266; experiment: MIC with cefepime, agar microdilution, CLSI; assay type: cell-based; settings: compound fixed at 4 ug/ml; SHV-5
Protocol: as §1, §2

[7] = test system: K. pneumoniae 427; experiment: MIC with cefepime, agar microdilution, CLSI; assay type: cell-based; settings: compound fixed at 4 ug/ml; TEM-1, SHV-1, CTX-M-3
Protocol: as §1, §2

[8] = test system: A. baumannii 0057; experiment: MIC with cefepime, agar microdilution, CLSI; assay type: cell-based; settings: compound fixed at 4 ug/ml; ADC-7
Protocol: as §1, §2

[9] = test system: E. coli pLTCF2; experiment: MIC with cefepime, agar microdilution, CLSI; assay type: cell-based; settings: compound fixed at 4 ug/ml
Protocol: as §1, §2

[10] = test system: E. coli pLTCF1; experiment: MIC with cefepime, agar microdilution, CLSI; assay type: cell-based; settings: compound fixed at 4 ug/ml; CTX-M group 9
Protocol: as §1, §2

[11] = test system: K. pneumoniae 253; experiment: MIC with cefepime, agar microdilution, CLSI; assay type: cell-based; settings: compound fixed at 4 ug/ml; TEM-12, SHV-5, CTX-M
Protocol: as §1, §2

[12] = test system: K. pneumoniae 255; experiment: MIC with cefepime, agar microdilution, CLSI; assay type: cell-based; settings: compound fixed at 4 ug/ml; TEM-1, SHV-2
Protocol: as §1, §2

[13] = test system: K. pneumoniae ST17; experiment: MIC with cefepime, agar microdilution, CLSI; assay type: cell-based; settings: compound fixed at 4 ug/ml; KPC-2, TEM, SHV, CTX-M-Group 1
Protocol: as §1, §2

[14] = test system: E. coli ATCC BAA202; experiment: MIC with cefepime, agar microdilution, CLSI; assay type: cell-based; settings: compound fixed at 4 ug/ml; SHV-1
Protocol: as §1, §2

[15] = test system: E. coli DH10B pBC-SK SHV-2; experiment: MIC with cefepime, agar microdilution, CLSI; assay type: cell-based; settings: compound fixed at 4 ug/ml
Protocol: as §1, §2

[16] = MEM 500 mg/Kg + cilastatin 200 mg/Kg (SC) + MB076 25 mg/Kg (IV)
[17] = MEM 500 mg/Kg + cilastatin 200 mg/Kg (SC) + MB076 50 mg/Kg (IV)
[18] = MEM 1000 mg/Kg + cilastatin 200 mg/Kg (SC) + MB076 25 mg/Kg (IV)
[19] = MEM 1000 mg/Kg + cilastatin 200 mg/Kg (SC) + MB076 50 mg/Kg (IV)
[20] = MEM 1000 mg/Kg + cilastatin 200 mg/Kg (SC) + MB076 100 mg/Kg (IV)
[21] = plasma, 12.5 mg/kg IV single dose
[22] = plasma, 25 mg/kg IV single dose
[23] = plasma, 50 mg/kg IV single dose
[24] = plasma, 100 mg/kg IV single dose
[25] = thigh homogenate, 12.5 mg/kg IV single dose
[26] = thigh homogenate, 25 mg/kg IV single dose
[27] = thigh homogenate, 50 mg/kg IV single dose
[28] = thigh homogenate, 100 mg/kg IV single dose

Nc1nnc(SCC(=O)NC(Cn2cc(C(=O)O)nn2)B(O)O)s1 (centres unmarked) [MB076]
Abdominal tone [1, 16]: Mild
Body weight after 1° dose [1, 16]: 23
Body weight after 4° dose [1, 16]: 22
Limb tone [1, 16]: Mild
Abdominal tone [1, 17]: increased
Body weight after 1° dose [1, 17]: 23
Body weight after 4° dose [1, 17]: 22.2
Limb tone [1, 17]: Mild
Abdominal tone [1, 18]: Mild
Body weight after 1° dose [1, 18]: 23.2
Body weight after 4° dose [1, 18]: 21.7
Limb tone [1, 18]: Mild
Abdominal tone [1, 19]: Mild
Body weight after 1° dose [1, 19]: 23
Body weight after 4° dose [1, 19]: 22
Limb tone [1, 19]: Mild
Abdominal tone [1, 20]: Mild
Body weight after 1° dose [1, 20]: 23
Body weight after 4° dose [1, 20]: 22
Limb tone [1, 20]: increased and Mild
Acute toxicity or mortality ([1]; all tested dose groups, MB076 IV with meropenem + cilastatin SC, QID q6h one day, neutropenic uninfected female ICR mice): No acute toxicity or mortality was observed
Piloerection [1, 16]: 4/4 after
Piloerection [1, 17]: 4/4 after
Piloerection [1, 18]: 4/4 after
Piloerection [1, 19]: 4/4 after
Piloerection [1, 20]: 4/4 after
Vocalization [1, 16]: 1/4
Vocalization [1, 17]: 0/4
Vocalization [1, 18]: 2/4
Vocalization [1, 19]: 3/4
Vocalization [1, 20]: 0/4
AUC(0-inf) [2, 21]: 7200 ng·h/mL
AUC(0-t) [2, 21]: 7100 ng·h/mL
C0 [2, 21]: 35.6 µg/mL
clearance [2, 21]: 29.1 mL/min/kg
half-life [2, 21]: 33.6 min
Vd [2, 21]: 0.65 L/kg
AUC(0-inf) [2, 22]: 17800 ng·h/mL
AUC(0-t) [2, 22]: 17600 ng·h/mL
C0 [2, 22]: 84 µg/mL
clearance [2, 22]: 23.4 mL/min/kg
half-life [2, 22]: 36.6 min
Vd [2, 22]: 0.8 L/kg
AUC(0-inf) [2, 23]: 39100 ng·h/mL
AUC(0-t) [2, 23]: 39000 ng·h/mL
C0 [2, 23]: 207 µg/mL
clearance [2, 23]: 21.3 mL/min/kg
half-life [2, 23]: 25.8 min
Vd [2, 23]: 0.35 L/kg
AUC(0-inf) [2, 24]: 104000 ng·h/mL
AUC(0-t) [2, 24]: 103000 ng·h/mL
C0 [2, 24]: 638 µg/mL
clearance [2, 24]: 16.1 mL/min/kg
half-life [2, 24]: 25.8 min
Vd [2, 24]: 0.21 L/kg
AUC(0-inf) [2, 25]: 1000 ng·h/mL
AUC(0-t) [2, 25]: 1000 ng·h/mL
C0 [2, 25]: 6.3 µg/mL
half-life [2, 25]: 14.4 min
Vd [2, 25]: 2.96 L/kg
AUC(0-inf) [2, 26]: 1800 ng·h/mL
AUC(0-t) [2, 26]: 1700 ng·h/mL
C0 [2, 26]: 17 µg/mL
half-life [2, 26]: 6.6 min
Vd [2, 26]: 1.38 L/kg
AUC(0-inf) [2, 27]: 6300 ng·h/mL
AUC(0-t) [2, 27]: 6300 ng·h/mL
C0 [2, 27]: 34 µg/mL
half-life [2, 27]: 12.6 min
Vd [2, 27]: 1.76 L/kg
AUC(0-inf) [2, 28]: 17300 ng·h/mL
AUC(0-t) [2, 28]: 17200 ng·h/mL
C0 [2, 28]: 108 µg/mL
half-life [2, 28]: 15 min
Vd [2, 28]: 1.07 L/kg
Linearity of C0 and AUClast with dose ([2]; plasma and thigh homogenates, 12.5-100 mg/kg IV): correlated linearly with dose
MIC of cefepime in combination with compound [3]: < 0.25 µg/mL
MIC of cefepime in combination with compound [4]: < 0.25 µg/mL
MIC of cefepime in combination with compound [5]: < 0.25 µg/mL
MIC of cefepime in combination with compound [6]: < 0.25 µg/mL
MIC of cefepime in combination with compound [7]: < 0.25 µg/mL
MIC of cefepime in combination with compound [8]: 64 µg/mL
MIC of cefepime in combination with compound [9]: < 0.25 µg/mL
MIC of cefepime in combination with compound [10]: < 0.25 µg/mL
MIC of cefepime in combination with compound [11]: 8 µg/mL
MIC of cefepime in combination with compound [12]: 2 µg/mL
MIC of cefepime in combination with compound [13]: 16 µg/mL
MIC of cefepime in combination with compound [14]: < 0.25 µg/mL
MIC of cefepime in combination with compound [15]: < 0.25 µg/mL

From patent US20250340577A1, “BETA-LACTOMASE INHIBITORS AND USES THEREOF” (Case Western Reserve University, priority 2021, published 2025)
